Assay results from patent publication US9388164B2, “Methods of using pyruvate kinase activators” (AGIOS PHARMACEUTICALS, INC, priority 2011, dated 2016).

Legend:
Assay type in all cases: biochemical
[1] = molecular target: PKR R510Q (Homo sapiens, UniProt P30613, R510Q); assay: PKR R510Q Single Point Percent Activation Assay; conditions: compound at 1 μM; for activation at 1 µM: read-out: % Act. R510Q
Experimental: PKR R510Q Single Point Percent Activation Assay
(§1) A compound described herein was diluted with DMSO and tested at 1 μM concentration. The enzyme was diluted in 1× Buffer: (100 mM KCl, 50 mM Tris 7.5, 5 mM MgCl2, 1 mM DTT, 0.03% BSA). 2 μL of compound solution was first added into wells, and then 180 μL of enzyme solution was added. Assays were assembled except for ADP, and plates were stored for 60 minutes at RT. 20 μL ADP was added to start the assay and assay output was evaluated using OD340 at SpectraMax. The assay was run at room temperature.
PKR R510Q (40 ng/well), Tris pH 7.5 (50 mM), KCl (100 mM), MgCl2 (5 mM), ADP (0.2 mM), PEP (0.11 mM), NADH (180 μM), LDH (0.5 units, Sigma 59023), DTT (1 mM) and BSA (0.03%).

[2] = molecular target: PKR R532W (Homo sapiens, UniProt P30613, R532W); assay: PKR R532W Single Point Percent Activation Assay; conditions: compound at 1 μM; for activation at 1 µM: read-out: % Act. R532W
Experimental: PKR R532W Single Point Percent Activation Assay
as §1
PKR R532W (100 ng/well), Tris pH 7.5 (50 mM), KCl (100 mM), MgCl2 (5 mM), ADP (0.36 mM), PEP (0.1 mM), NADH (180 μM), LDH (0.5 units, Sigma 59023), DTT (1 mM) and BSA (0.03%).

[3] = molecular target: PKR T384W (Homo sapiens, UniProt P30613); assay: PKR T384W Single Point Percent Activation Assay; conditions: compound at 1 μM
Experimental: PKR T384W Single Point Percent Activation Assay
as §1, with “180 μL enzyme solution” for “180 μL of enzyme solution”
PKR T384W soluble (300 ng/well), Tris pH 7.5 (50 mM), KCl (100 mM), MgCl2 (5 mM), ADP (0.08 mM), PEP (0.23 mM), NADH (180 μM), LDH (0.5 units, Sigma 59023), DTT (1 mM) and BSA (0.03%).

[4] = molecular target: PKR wt (Homo sapiens, UniProt P30613); assay: PKR WT Single Point Percent Activation Assay; conditions: compound at 1 μM
Experimental: PKR WT Single Point Percent Activation Assay
as §1
PKR wt (100 ng/well), Tris pH 7.5 (50 mM), KCl (100 mM), MgCl2 (5 mM), ADP (0.48 mM), PEP (0.15 mM), NADH (180 μM), LDH (0.5 units, Sigma 59023), DTT (1 mM) and BSA (0.03%).

[5] = molecular target: wild type PKR (Homo sapiens, UniProt P30613); assay: PKR assay, AC50 (wild type); conditions: read-out: PKR WT AC50
Experimental: • PKR or PKR mutant enzyme solution was diluted in assay buffer. • 2 μL of test compound was added into wells first, and then 180 μL reaction mix was added. • Reactions mixture with test compound was assembled except for ADP, and plates were stored for 60 minutes at room temperature. • 20 uL ADP was added to start reaction at room temperature and reaction progress was measured as changes in absorbance at 340 nm wavelength at room temperature.
Test Compound Preparation: • Test compound stock was made at 100× concentration in 100% DMSO (10 mM) • 1 to 3 dilutions were made for 11 points (i.e. 50 μl of first concentration added to 100 μl 100% DMSO to yield 3.33 mM, 50 μl of this added to 100 μl DMSO to yield 1.11 mM, and so forth) • 1 to 100 dilution into assay (2 μl in 200 μl) yielded starting concentration of 100 μM, decreasing 3 fold for 11 points.

Chain of wild type PKR (P30613 whole entry): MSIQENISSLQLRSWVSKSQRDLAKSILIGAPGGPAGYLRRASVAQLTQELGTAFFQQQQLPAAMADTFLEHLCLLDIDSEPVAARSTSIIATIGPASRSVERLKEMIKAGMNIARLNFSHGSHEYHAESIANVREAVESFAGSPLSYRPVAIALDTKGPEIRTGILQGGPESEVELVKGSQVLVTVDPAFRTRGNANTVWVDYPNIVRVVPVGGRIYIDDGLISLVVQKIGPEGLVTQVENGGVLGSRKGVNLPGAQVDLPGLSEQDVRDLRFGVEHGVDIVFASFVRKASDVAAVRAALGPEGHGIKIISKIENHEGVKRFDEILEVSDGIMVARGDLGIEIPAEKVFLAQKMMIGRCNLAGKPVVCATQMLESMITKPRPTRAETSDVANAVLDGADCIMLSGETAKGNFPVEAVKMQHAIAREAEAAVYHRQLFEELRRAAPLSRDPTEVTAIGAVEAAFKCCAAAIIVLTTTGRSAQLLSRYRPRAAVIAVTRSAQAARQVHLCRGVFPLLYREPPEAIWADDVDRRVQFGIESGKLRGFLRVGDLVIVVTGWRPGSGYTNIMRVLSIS
Chain of PKR wt (P30613 whole entry): as above
Chain of PKR R532W (P30613 whole entry R532W): as the sequence (P30613 whole entry) above, with R532W counted along it
Chain of PKR T384W (P30613 whole entry T384M): as the sequence (P30613 whole entry) above, with T384M counted along it
Chain of PKR R510Q (P30613 whole entry R510Q): as the sequence (P30613 whole entry) above, with R510Q counted along it

Row | Structure (SMILES) | activation at 1 µM [1] [%] | activation at 1 µM [2] [%] | % Act. T384W [3] | activation at 1 µM [4] [%] | AC50 [5] [nM] | % Act. R532W [2] | % Act. R510Q [1] | Act. % WT [4]
1 | Cc1cc(C(=O)N2CC(C)(O)C2)ccc1NS(=O)(=O)c1cccc2cccnc12 | 101 to 500 | 101 to 500 | B (a % activation at 1 μM of from 101 to 500) | 101 to 500 |  |  |  | 
2 | Cc1cc(C(=O)N2CC(Nc3ccccc3)C2)ccc1NS(=O)(=O)c1cccc2cccnc12 | 101 to 500 | 101 to 500 | B (a % activation at 1 μM of from 101 to 500) | 101 to 500 |  |  |  | 
3 | CN(Cc1ccccc1)C1CN(C(=O)c2ccc(NS(=O)(=O)c3cccc4cccnc34)cc2)C1 | 101 to 500 | 101 to 500 | B (a % activation at 1 μM of from 101 to 500) | 101 to 500 |  |  |  | 
4 | O=C(c1ccc(NS(=O)(=O)c2cccc3cccnc23)cc1)N1CC(Oc2ccccc2)C1 [drawing 4] | 101 to 500 | 101 to 500 | B (a % activation at 1 μM of from 101 to 500) | 101 to 500 | 101 to 500 |  |  | 
5 | O=C(c1ccc(NS(=O)(=O)c2cccc3cccnc23)cc1)N1CC(O)(Cc2ccccc2)C1 [drawing 5] | 101 to 500 | 101 to 500 | B (a % activation at 1 μM of from 101 to 500) | 101 to 500 | < 100 |  |  | 
6 | Cc1cc(C(=O)N2CC(NC(=O)c3ccccn3)C2)ccc1NS(=O)(=O)c1cccc2cccnc12 [drawing 7] | 101 to 500 | 1 to 100 | B (a % activation at 1 μM of from 101 to 500) | 101 to 500 | 101 to 500 |  |  | 
7 | O=C(NC1CN(C(=O)c2ccc(NS(=O)(=O)c3cccc4cccnc34)cc2)C1)c1ccccn1 [drawing 8] | 101 to 500 |  | B (a % activation at 1 μM of from 101 to 500) | 101 to 500 |  | A (a % activation at 1 μM of from 1 to 100) |  | 
8 | Cc1cc(C(=O)N2CC(Oc3ccccc3)C2)ccc1NS(=O)(=O)c1cccc2cccnc12 [drawing 10] | 101 to 500 | 1 to 100 | A (a % activation at 1 μM of from 1 to 100) | 1 to 100 | < 100 |  |  | 
9 | O=C(c1ccc(NS(=O)(=O)c2cccc3cccnc23)cc1)N1CC(OCc2ccccc2)C1 [drawing 12] | 101 to 500 | 101 to 500 | B (a % activation at 1 μM of from 101 to 500) | 101 to 500 | 101 to 500 |  |  | 
10 | O=C(NC1CN(C(=O)c2ccc(NS(=O)(=O)c3cccc4cccnc34)cc2)C1)c1ccccn1 [drawing 15] |  |  | B (a % activation at 1 μM of from 101 to 500) |  | > 500 | B (a % activation at 1 μM of from 101 to 500) | B (a % activation at 1 μM of from 101 to 500) | B (a % activation at 1 μM of from 101 to 500)
11 | COc1ccccc1N(C)C1CN(C(=O)c2ccc(NS(=O)(=O)c3cccc4cccnc34)cc2)C1 [drawing 21] | 101 to 500 |  | A (a % activation at 1 μM of from 1 to 100) | 101 to 500 |  | B (a % activation at 1 μM of from 101 to 500) |  | 
12 | COc1ccccc1N(C)C1CN(C(=O)c2ccc(NS(=O)(=O)c3cccc4cccnc34)cc2)C1 [drawing 32] |  |  | B (a % activation at 1 μM of from 101 to 500) |  |  | A (a % activation at 1 μM of from 1 to 100) | B (a % activation at 1 μM of from 101 to 500) | B (a % activation at 1 μM of from 101 to 500)
13 | Cc1cc(C(=O)N2CC(Nc3ccccn3)C2)ccc1NS(=O)(=O)c1cccc2cccnc12 [drawing 55] | 1 to 100 | 1 to 100 | B (a % activation at 1 μM of from 101 to 500) | 1 to 100 |  |  |  | 
14 | O=C(Nc1ccccn1)OC1CN(C(=O)c2ccc(NS(=O)(=O)c3cccc4cccnc34)cc2)C1 [drawing 65] | 101 to 500 | 101 to 500 | B (a % activation at 1 μM of from 101 to 500) | 101 to 500 |  |  |  | 
